Test results reported in patent US10294202B2, “Pyrrolidinones as herbicides” (FMC Corporation, priority 2013, dated 2019).

Legend:
[1] = system: barnyardgrass; assay: Test F flood (paddy) test; format: in vivo, Echinochloa crus-galli; details: 21 d, scale 0-100
Excerpt: Three plastic pots (ca. 16-cm diameter) per rate were partially filled with sterilized Tama silt loam soil comprising a 35:50:15 ratio of sand, silt and clay and 2.6% organic matter. Separate plantings for each of the three pots were as follows. Seeds from the U.S. of monochoria (Monochoria vaginalis), sedge, umbrella (small-flower umbrella sedge, Cyperus difformis), bulrush, […] bulrush, Scirpus juncoides), and […] (purple […] coccinea), were planted into one 16-cm pot for each rate. Seeds from the U.S. of flatsedge, rice (rice flatsedge, Cyperus iria), sprangletop, Brdd. (bearded sprangletop, Leptochloa fascicularis), one stand of 9 or 10 water seeded rice seedlings (Rice, W.S. Jap, Oryza sativa cv. 'Japonica-[…]' or Rice, W.S. Ind, 'Indica'), and two stands of 3 or 4 seedlings of rice, transplanted (transplanted rice, Oryza sativa cv. 'Japonica-[…]') were planted into one 16-cm pot for each rate. Seeds from the U.S. of barnyardgrass (Echinochloa crus-galli), […] (common […], Alisma plantago-aquatica), and watergrass, late (late watergrass, Echinochloa oryzicola) were planted into one 16-cm pot for each rate. Plantings were sequential so that crop and weed species were at the 2.0 to 2.5-leaf stage at time of treatment. Potted plants were grown in a greenhouse with day/night temperature settings of 30/27° C., and supplemental balanced lighting was provided to maintain a 16-h photoperiod. Test pots were maintained in the greenhouse until test completion. At time of treatment, test pots were flooded to 3 cm above the soil surface, treated by application of test compounds directly to the paddy water, and then maintained at that water depth for the duration of the test. Effects of treatments on rice and weeds were visually evaluated by comparison to untreated controls after 21 d. Plant response ratings, summarized in Table F, are based on a scale of 0 to 100 where 0 is no effect and 100 is complete control. A dash (-) response means no test result.

[2] = system: canarygrass; assay: Test D pre-/postemergence herbicide test; format: in vivo, Phalaris minor; details: Preemergence; for Plant response rating, Canarygrass: scale 0 to 100 (0 no effect, 100 complete control)
Excerpt: (§1) Seeds of plant species selected from bluegrass (annual bluegrass, Poa annua), blackgrass (Alopecurus myosuroides), canarygrass (littleseed canarygrass, Phalaris minor), chickweed (common chickweed, Stellaria media), galium (catchweed bedstraw, Galium aparine), bromegrass, downy (downy bromegrass, Bromus tectorum), field poppy (Papaver rhoeas), field violet (Viola arvensis), foxtail, green (green foxtail, Setaria viridis), deadnettle (henbit deadnettle, Lamium amplexicaule), ryegrass, Italian (Italian ryegrass, Lolium multiflorum), kochia (Kochia scoparia), lambsquarters (Chenopodium album), oilseed rape (Brassica napus), pigweed (Amaranthus retroflexus), chamomile (scentless chamomile, Matricaria inodora), Russian thistle (Salsola kali), speedwell (bird's-eye speedwell, Veronica persica), barley, spring (spring barley, Hordeum vulgare), wheat, spring (spring wheat, Triticum aestivum), buckwheat, wild (wild buckwheat, Polygonum convolvulus), mustard, wild (wild mustard, Sinapis arvensis), oat, wild (wild oat, Avena fatua), radish, wild (wild radish, Raphanus raphanistrum), […]), barley, winter (winter barley, Hordeum vulgare), and wheat, winter (winter wheat, Triticum aestivum) were planted into a silt loam soil and treated preemergence with test chemicals formulated in a non-phytotoxic solvent mixture which included a surfactant. At the same time, these species were planted in pots containing Redi-Earth® planting medium (Scotts Company, 14111 Scottslawn Road, Marysville, Ohio 43041) comprising spaghnum peat moss, vermiculite, wetting agent and starter nutrients and treated with postemergence applications of the test chemicals formulated in the same manner. Plants ranged in height from 2 to 18 cm (1- to 4-leaf stage). Treated plants and controls were maintained in a controlled growth environment for 7 to 21 days after which time all species were compared to controls and visually evaluated. Plant response ratings, summarized in Table D, are based on a scale of 0 to 100 where 0 is no effect and 100 is complete control. A dash (-) response means no test result.

[3] = system: kochia; assay: Test D pre-/postemergence herbicide test; format: in vivo, Kochia scoparia; details: Preemergence; for Plant response rating, Kochia: scale 0 to 100 (0 no effect, 100 complete control)
Excerpt: as §1

[4] = system: oilseed rape; assay: Test D pre-/postemergence herbicide test; format: in vivo, Brassica napus; details: Preemergence, scale 0 to 100 (0 no effect, 100 complete control)
Excerpt: as §1

SMILES: CN1CC(c2ccc(F)cc2)C(C(=O)Nc2cccc(F)c2F)C1=O (centres unmarked) [Compound 271]
- Plant response rating, Barnyardgrass ([1]; 64 g ai/ha): 55
- Plant response rating, Barnyardgrass ([1]; 125 g ai/ha): 75
- Plant response rating, Barnyardgrass ([1]; 250 g ai/ha): 100
- Plant response rating, Barnyardgrass ([1]; 500 g ai/ha): 100

SMILES: O=C1NCC(c2cccc(C(F)(F)F)c2)C1C(=O)Nc1ccccc1F (racemic) [Compound 3]
- Plant response rating, Barnyardgrass ([1]; 250 g ai/ha): 90
- Plant response rating, Barnyardgrass ([1]; 500 g ai/ha): 90

SMILES: O=C1NCC(c2cccc(C(F)(F)F)c2)C1C(=O)Nc1ccc(F)cc1F (racemic) [Compound 207]
- Plant response rating, Canarygrass ([2]; 31 g ai/ha): 0
- Plant response rating, Canarygrass ([2]; 62 g ai/ha): 5
- Plant response rating, Canarygrass ([2]; 125 g ai/ha): 0
- Plant response rating ([2]; 250 g ai/ha, Canarygrass, scale 0 to 100): 75
- Plant response rating, Kochia ([3]; 31 g ai/ha): 10
- Plant response rating, Kochia ([3]; 62 g ai/ha): 10
- Plant response rating, Kochia ([3]; 125 g ai/ha): 10
- Plant response rating ([3]; 250 g ai/ha, Kochia, scale 0 to 100): 60
- Plant response rating, Oilseed Rape ([4]; 31 g ai/ha): 0
- Plant response rating, Oilseed Rape ([4]; 62 g ai/ha): 0
- Plant response rating, Oilseed Rape ([4]; 125 g ai/ha): 0
- Plant response rating, Oilseed Rape ([4]; 250 g ai/ha): 0
- Plant response rating, Barnyardgrass ([1]; 125 g ai/ha): 60
- Plant response rating, Barnyardgrass ([1]; 250 g ai/ha): 100
- Plant response rating, Barnyardgrass ([1]; 500 g ai/ha): 100

SMILES: O=C1NCC(c2ccc(C(F)(F)F)c(F)c2)C1C(=O)Nc1cccc(F)c1F (racemic) [Compound 247]
- Plant response rating, Barnyardgrass ([1]; 125 g ai/ha): 60
- Plant response rating, Barnyardgrass ([1]; 250 g ai/ha): 65
- Plant response rating, Barnyardgrass ([1]; 500 g ai/ha): 70
- Plant response rating, Barnyardgrass ([1]; 1000 g ai/ha): 70
- Plant response rating, Barnyardgrass ([1]; 2000 g ai/ha): 75
